# Counter-ions that a name gives are not always drawn.
# Columns and labels:
# HIV = assay: HIV-p24 antigen in culture supernatant of HIV-infected mitogen-derived blast cells of PBMC; type: cell-based; details: for Amount of HIV-p24 antigen: PHA-activated PBMC blast cells, culture supernatant
# Description: The cytotoxicity of SBA against the A3.01 cells, at a high SBA concentration of 1000 µg of SBA/ml, was such that the rate of survival of said cells was about 70%. The above results of testing the cytotoxicity of SBA indicate that the cytotoxicity of SBA against the above various cells is fairly low. On the other hand, with the HIV-infected A3.01 cells, it is seen that the presence of SBA at concentrations in a range of from 500 to 800 µg of SBA/ml gives the rate of survival of the HIV-infected A3.01 cells at a level as low as 3-24%. […] (b) Tests of examining the inhibitory activities of SBA against infestion of HIV to mitogen-derived blast cells of human periphery blood monocytic cell (PBMC) and against proliferation of HIV in the HIV-infected blast cells of PMBC as well as against replication of the viral particles of HIV in the HIV-infected blast cells of PBMC, where HIV was made to infest the blast cells of PBMC of which the blastogenesis has been induced by a mitogen. Such blast cells of PBMC, which were blastogenetically transformed by activation with PHA […] as a mitogen, were cultivated and then made to be infested with HIV either by inoculation of HIV or by inoculation of HIV which had been pretreated with SBA. The HIV-infected cells so obtained continued further to be incubated in the culture media containing different concentrations of SBA. Then, the supernatant of the resulting cultures was separated, and the amount of the viral particles of HIV as released in the supernatant so obtained was measured. This measurement of the released amount of the viral particles of HIV was made by determining the amount of HIV-p24 antigen, i.e. a structural protein of HIV, existing in the supernatant, as a substitute index which can represent the amount of the viral particles of HIV so released in said supernatant.
# HIVBRU = assay: HIV-p24 antigen released from HIV-infected A3.01 cells stimulated with TNF-α; type: cell-based; details: TNF-α 10 units/ml; for Amount of the HIV p24 antigen: HIV-infected A3.01 cells
# Description: In view of all these test results, it appears that the inhibitory activity of SBA against the replication of HIV-1 is not attributable to that SBA directly acts on HIV so as to make lose the infectivity (infectious power) of HIV. (c) Test of examining the inhibitory activity of SBA against such replication of the viral particles of HIV which is induced when a tumor necrosis factor (TNF-α) is introduced into the HIV-infected A3.01 cells AIDS virus, HIVBRU (its reverse transcriptase activity, 0.03 cpm/cell) and 6 x 10^6 cells of the A3.01 cell (HAT-susceptible CEM cell strain) were mixed and reacted together in a culture medium at 37°C for 1 hour, and thereafter the mixed cells were washed with PBS to remove the excess of the particles of HIV virus therefrom. The A3.01 cells (5 x 10^5 cells) which had been so infected with HIV were then cultivated in various culture media containing TNF-α and SBA at different concentrations of them. The amount of the HIV-p24 antigen (an HIV-structural protein of HIV) which was released in the culture supernatant from the cultivated cells under test was periodically measured during the period of between 0 day to 5th day of the cultivation. The culture medium used for the above-mentioned cultivation of the A3.01 cells was an RPM1-1640 medium comprising 10% of heat-treated embryonic bovine serum, and minor amounts of penicillin, streptomycin, glutamine and mercaptoethanol. The amount of the HIV-p24 antigen produced was measured with lapse of time, and the relationship of the amount of the HIV-p24 antigen to the concentration of SBA is summarily tabulated in Table 4 below.
# In the tests above, the replication of the viral particles of HIV was examined in terms of the amount of the p24 antigen protein produced and appearing in the culture supernatant from the cultivated cells. Thus, the amount of the p24 antigen produced was measured periodically over 6 days after the A3.01 cells were infested with HIV. It was then observed that in the absence of SBA, the replication of the viral particles of HIV was induced in the A3.01 cells by stimulation with 10 units/ml of TNF-α added. […] Thus, the effective amount of SBA has the activity to inhibit the replication of the viral particles of HIV within the cells to an extent as same as AZT, and from this it is expected that SBA is useful similarly to AZT for the therapeutic treatments of AIDS. (d) Tests for evaluating an inhibitory activity of SBA to the formation of giant cells from HIV-infected Molt-4 cells In a similar manner to that in the above Test (c), Molt-4 cells (a CD4-positive human T-cell strain) were infected with AIDS virus, HIVBRU. Thereafter, The HIV-infected Molt-4 cells were mixed with such Molt-4 cells which had no HIV-infection. And the mixture of these cells were cultivated at a high density of the mixed cells in the above-mentioned improved RPM1-1640 medium containing SBA at its different concentrations. Whereupon, there was examined the presence of cell-fused cell(s) (namely, the giant cells) which were formed by fusion of the HIV-infected cells with each other or by fusion of the HIV-infected cells with the HIV-non-infected cells. The formation and appearance of the giant cells was confirmed by microscopic observation. The size of such giant cells is clearly different from the size of the other usual cells. […] Namely, it is shown that SBA has an anti-HIV activity. […] In the initial stage of the transcription of HIV-1 gene, said NFkB, i.e. the transcription regulating factor of the host cells, plays an important role. […] NFkB is known to be a complex protein which is composed by the association of a molecule of protein having a molecular weight of about 50,000 (p50) with a molecule of protein having a molecular weight of about 65,000 (p65). […]
structure (smiles),measurement,setting,value
"O=C1O[C@H]([C@@H]2COC(c3ccccc3)O2)C(O)=C1O (stereo partly drawn) [SBA, 5,6-O-benzylidene-L-ascorbic acid mono-sodium salt]",inhibition of the replication of the viral particles of HIV (in words),"HIV; PBMC blast cells infected with the SBA-pretreated HIV, cultivated in the presence of SBA",no appreciable effect of SBA to inhibit the replication of the viral particles of HIV can be observed
same,Amount of HIV-p24 antigen,"HIV; SBA 10 µg/ml, cells as infected with HIV",1500 pg/mL
same,Amount of HIV-p24 antigen,"HIV; SBA 10 µg/ml, cells as infected with the SBA-pretreated HIV",1240 pg/mL
same,Amount of HIV-p24 antigen,"HIV; SBA 50 µg/ml, cells as infected with HIV",1400 pg/mL
same,Amount of HIV-p24 antigen,"HIV; SBA 50 µg/ml, cells as infected with the SBA-pretreated HIV",1520 pg/mL
same,inhibition of the production of the HIV antigen (in words),"HIV; SBA 100 µg/ml, PHA-activated PBMC blast cells infested with HIV",exhibited an effective activity inhibitory to the production of the HIV antigen
same,Amount of HIV-p24 antigen,"HIV; SBA 100 µg/ml, cells as infected with HIV",380 pg/mL
same,Amount of HIV-p24 antigen,"HIV; SBA 100 µg/ml, cells as infected with the SBA-pretreated HIV",1430 pg/mL
same,inhibition at 10 µg/mL,"HIVBRU; Human immunodeficiency virus 1, SBA 10 µg/ml, in comparison with the cases when SBA was absent, read-out: inhibition of the replication of the HIV viral particles",50%
same,Amount of the HIV p24 antigen,"HIVBRU; SBA 1 µg/ml, 0th day",0 pg/mL
same,Amount of the HIV p24 antigen,"HIVBRU; SBA 1 µg/ml, 1st day",0 pg/mL
same,Amount of the HIV p24 antigen,"HIVBRU; SBA 1 µg/ml, 2nd day",0 pg/mL
same,Amount of the HIV p24 antigen,"HIVBRU; SBA 1 µg/ml, 3rd day",1400 pg/mL
same,Amount of the HIV p24 antigen,"HIVBRU; SBA 1 µg/ml, 4th day",2600 pg/mL
same,inhibition of the replication of the viral particles of HIV (in words),"HIVBRU; SBA 1 µg/ml, 5th day from the HIV infection",considerably inhibited
same,Amount of the HIV p24 antigen,"HIVBRU; SBA 1 µg/ml, 5th day",4000 pg/mL
same,Amount of the HIV p24 antigen,"HIVBRU; SBA 10 µg/ml, 0th day",0 pg/mL
same,Amount of the HIV p24 antigen,"HIVBRU; SBA 10 µg/ml, 1st day",0 pg/mL
same,Amount of the HIV p24 antigen,"HIVBRU; SBA 10 µg/ml, 2nd day",0 pg/mL
same,Amount of the HIV p24 antigen,"HIVBRU; SBA 10 µg/ml, 3rd day",800 pg/mL
same,Amount of the HIV p24 antigen,"HIVBRU; SBA 10 µg/ml, 4th day",1500 pg/mL
same,Amount of the HIV p24 antigen,"HIVBRU; SBA 10 µg/ml, 5th day",2250 pg/mL
same,Amount of the HIV p24 antigen,"HIVBRU; SBA 100 µg/ml, 0th day",0 pg/mL
same,Amount of the HIV p24 antigen,"HIVBRU; SBA 100 µg/ml, 1st day",0 pg/mL
same,Amount of the HIV p24 antigen,"HIVBRU; SBA 100 µg/ml, 2nd day",0 pg/mL
same,Amount of the HIV p24 antigen,"HIVBRU; SBA 100 µg/ml, 3rd day",0 pg/mL
same,Amount of the HIV p24 antigen,"HIVBRU; SBA 100 µg/ml, 4th day",0 pg/mL
same,Amount of the HIV p24 antigen,"HIVBRU; SBA 100 µg/ml, 5th day",0 pg/mL
same,inhibition of the replication of the viral particles of HIV (in words),HIVBRU; SBA 100 µg/ml,completely inhibited

# From EP0765662A1, “HIV GROWTH INHIBITORY COMPOSITION” (Kochi, Mutsuyuki, priority 1994, dated 1995)
